In experiment [1] the test system is murine hair follicle cycling. Particulars: small molecule screen of calcium blockers; mice. As for the experimental part:
To understand how calcium signaling controls hair follicle stem cell regulation, a screen for small molecules that affect murine hair follicle cycling was carried out. The compounds included a survey of different classes of cell permeable slow and fast channel blockers applied to the skin.
We performed a small molecule screen to find out if any of the available calcium blockers affected hair follicle cycling.

Experiment [2] deals with bulge stem cells of Cav fx/-; K15 CrePR mice. The experiment is described as follows: Verapamil treatment of RU486 treated Cav fx/-; K15 CrePR mice. It counts as in vivo, mouse. The source says:
Loss of function mutation of this channel entails a removal of exon 13 and 14 of Cav 1.2 gene (FIG. 1). […] Cav fx/- mice were crossed to K15CrePR animals to remove the pore region of the channel in the bulge stem cells. RU486 treatment of Cav fx/-; K15CrePR allowed the removal of the pore region. […] Loss of function mutation, which represents the closed state of this channel, results in the same phenotype as the open state of the channel.

The test system of the next experiment is bulge stem cells. The experiment is described as follows: microarray analysis and RT-PCR on Verapamil treated bulge cells. It counts as in vivo, mouse. From the text:
Out of those, the gene Follistatin like 1 (Fstl1) stood out. Fstl1 is a secreted glycoprotein that inhibits BMP signaling in lung and ureter development.
There are other BMP inhibitors that are known to affect hair cycling.

The subject of experiment [3] is hair follicles of wild type mice. In words: Verapamil treatment of wild type mice in first telogen.
In another experiment the test system is hair cycling. The experiment is described as follows: subcutaneous injection of Fstl1 protein soaked beads, effect on hair cycling. The class given is in vivo, mouse. Particulars: half dose (2 μg) soaked beads, Day 21-22 mice. As for the experimental part:
To understand the effect of Fstl1 on hair cycling, we subcutaneously injected two different doses of Fstl1 protein (4 μg and 2 μg) soaked beads to Day 21-22 mice. In 2 to 4 days, these mice went into anagen (n=8, FIG. 7D).

[4] abbreviates: treated bulge stem cells vs control bulge stem cells.

Entries after “also recorded” stand apart in the source; their conditions may differ.

Take `COc1ccc([C@@H]2Sc3ccccc3N(CCN(C)C)C(=O)[C@@H]2OC(C)=O)cc1` [Diltiazem, diltiazem]: the entry to anagen result in experiment [1] is given as “showed the same results; also recorded: precocious entry into anagen”.

In the case of `COc1ccc(CCN(C)CCCC(C#N)(c2ccc(OC)c(OC)c2)C(C)C)cc1OC` (stereo not shown) [Verapamil, verapamil], in experiment [2] (drug treated Cav fx/-, K15 CrePR mutant mice, RU486 treated), the “anagen entry later than wild type littermates” value was 2 to 4 days. Further, the “H and E staining of skin sections” value in experiment [2] (treated mice vs control skin with telogen hair follicles) was “anagen hair follicles”. Also, in the experiment on bulge stem cells (treated bulge stem cells), the Bambi expression result is given as “downregulated” and the Noggin expression result is “downregulated”. In addition, in the experiment with bulge stem cells (setting [4]), the “Fstl1 expression (RT-PCR)” value is on record as “upregulated” and the Tmeff1 expression result was “does not change much”. Further, in experiment [3] (drug treated wild type mice vs telogen hair follicles in control mice), the “H and E staining of skin sections” value is “anagen hair follicles”. In addition, the “early anagen (advance of anagen entry)” value in experiment [3] (wild type mice treated between days 21 and 28 (first telogen), n=8) lay within 5 to 7 days.

B1: Fstl1 protein: secreted glycoprotein that inhibits BMP signaling; deduced 308-amino acid protein with FS module (protein, UniProt Q12841 21-308, looked up)
Follistatin-related protein 1: EEELRSKSKICANVFCGAGRECAVTEKGEPTCLCIEQCKPHKRPVCGSNGKTYLNHCELHRDACLTGSKIQVDYDGHCKEKKSVSPSASPVVCYQSNRDELRRRIIQWLEAEIIPDGWFSKGSNYSEILDKYFKNFDNGDSRLDSSEFLKFVEQNETAINITTYPDQENNKLLRGLCVDALIELSDENADWKLSFQEFLKCLNPSFNPPEKKCALEDETYADGAETEVDCNRCVCACGNWVCTAMTCDGKNQKGAQTQTEEEMTRYVQELQKHQETAEKTKRVSTKEI
Take B1: in the experiment with hair cycling, the entry to anagen result is recorded as “only partial entry to anagen”.
